# Several values for one entry are separate records, joined by “and”; a condition that tells them apart may be missing. Equal values may be shown once.
# System: carrageenan-induced mechanical hyperalgesia in rats
# Test: Carrageenan-induced mechanical hyperalgesia, paw pressure test, MIN-117 1-10 mg/kg (Example 4)
# Assay type: in vivo, male Sprague-Dawley rats
# Conditions: Carrageenan 2%; for Nociceptive threshold, control paw (mean ± s.e.m.): T0 (3 h after carrageenan, before dosing); for paw withdrawal threshold, control paw, Mean: n = 10
# Experimental: In this model, inflammation is induced by intraplantar injection of carrageenan (2%) into the right hindpaw of the rat. Three hours later, reaction thresholds are measured using the paw pressure test. Pressure is gradually applied to both hind paws (inflamed and control) of the rat, and reaction thresholds are determined as the pressure (g) required to elicit paw withdrawal or vocalization. Morphine (3 mg/kg, s.c.), used as positive control.
# The experiments in this study used fifty (50) male Sprague-Dawley rats (SPF status, Janvier, France), each weighing 183-244 g during the experimental phase. The rats were housed in a temperature (20-24° C.) and relative humidity (45%-65%) controlled room and acclimated to an artificial day/night cycle of 12 hours light (6.30 a.m. to 6.30 p.m.)/12 hours darkness. Rats had free access to sterilized tap water and were fed ad libitum with pelleted complete diet (reference A04, S.A.F.E.). Animals were housed 4 per cage (cages Type E) and were acclimated for a period of at least 5 days before any testing. Each rat was identified by tail markings. Based on the SPF status of the animal facilities, there is no reason to expect that contaminants were present in the food, water or bedding, at levels capable of interfering with the results of the tests.
# Static mechanical hyperalgesia was assessed using the Paw Pressure test or Randall & Selitto test (Randall, L. O. and Selitto, J. J., A method for measurement of analgesic activity on inflamed tissue, Arch Int Pharmacodyn, 1957(111): 409-419). This test requires the application of an increasing pressure on the hind paws between a flat surface and a blunt pointer. This test is usually used with animals with one hind paw inflamed by an injection or injured by ligation, and one normal hind paw, to evaluate drugs for analgesic action. The apparatus exerts a steadily increasing force and reaction threshold is determined as the pressure (g) required to elicit paw withdrawal and/or vocalization. In the experiment, animals were gently handled by the experimenter and static mechanical hyperalgesia was assessed. Each reaction threshold measurement was done for both hind paws.
# Five (5) experimental groups of 10 rats each were used. Each group was first injected with 100 μL of a 2% carrageenan suspension was injected into the plantar aspect of the right hindpaw. Three hours after carrageenan injection, nociceptive reaction thresholds (vocalization or paw withdrawal) were measured in order to select animals meeting the inclusion criteria: 20 g<paw withdrawal threshold<240 g (baseline). The 5 groups were then administered the following: • Group 1: vehicle (0.5% HPMC), i.p., solution (negative control); • Group 2: MIN-117 (1 mg/kg, i.p.) in 0.5% HPMC, suspension; • Group 3: MIN-117 (3 mg/kg, i.p.) in 0.5% HPMC, suspension; • Group 4: MIN-117 (10 mg/kg, i.p.) in 0.5% HPMC, suspension; and • Group 5: morphine (3 mg/kg, s.c.) in 0.9% NaCl, solution (positive control).
# Thirty minutes after morphine injection, the antihyperalgesic effect of morphine was evaluated using the paw pressure test. For vehicle and MIN-117 administration, the antihyperalgesic effect was evaluated after 120 min. using the paw pressure test.
# Vehicle and MIN-117 were intraperitoneally administered at 10 mL/kg. Morphine was subcutaneously administered at 5 mL/kg. Dosing and testing were performed in a random order by a blinded experimenter except for the morphine-treated group. Doses were expressed in terms of free active substance.
# Results were expressed as: • The paw withdrawal threshold (mean±s.e.m.) in grams of contact pressure for each group, calculated from individual paw withdrawal thresholds • The percentage of variation of the paw withdrawal threshold calculated from the mean value of the vehicle-treated group • The percentage of activity of activity of the compound on carrageenan-induced mechanical hyperalgesia, calculated as follows: […]
# [1] = 1 mg/kg i.p., T0 (before dosing)
# [2] = 3 mg/kg i.p., T0 (before dosing)
# [3] = 10 mg/kg i.p., T0 (before dosing)
# [4] = MIN-117 1 mg/kg i.p. group, Baseline (before dosing)
# [5] = MIN-117 1 mg/kg i.p., 120 min after treatment, hydrochloride, 1 mg/kg
# [6] = MIN-117 3 mg/kg i.p. group, Baseline (before dosing)
# [7] = MIN-117 3 mg/kg i.p., 120 min after treatment, hydrochloride, 3 mg/kg
# [8] = MIN-117 10 mg/kg i.p. group, Baseline (before dosing)
# [9] = MIN-117 10 mg/kg i.p., 120 min after treatment, hydrochloride, 10 mg/kg
# [10] = 3 mg/kg s.c., T0 (before dosing)
# [11] = 3 mg/kg s.c., T0 + 30 min, 3 mg/kg
# [12] = 3 mg/kg s.c., T0 + 30 min, listed as morphine, 3 mg/kg
# [13] = Morphine 3 mg/kg s.c. group, Baseline (before dosing)
# [14] = Morphine 3 mg/kg s.c., 30 min after treatment
smiles,measurement,setting,value
"Cc1nnc(-c2cc3c(OC[C@@H](O)CN4CCC(c5ccc(Cl)c(Cl)c5)CC4)cccc3o2)o1.Cl [MIN-117, (2S)-1-(4-(3,4-dichlorophenyl)piperidin-1-yl)-3-((2-(5-methyl-1,3,4-oxadiazol-2-yl)benzofuran-4-yl)oxy)propan-2-ol hydrochloride]",Effect on nociceptive threshold vs vehicle-treated group (in words),"1 mg/kg i.p., 120 min. after treatment",did not induce any significant increase
same,"Nociceptive threshold, control paw (mean ± s.e.m.)",1 mg/kg i.p.,402 ± 19.9 g
same,"% variation vs control paw, injured paw",[1],−50%
same,"% variation vs vehicle-treated group, injured paw",[1],1%
same,"Nociceptive threshold, injured paw (mean ± s.e.m.)",[1],202 ± 8.7 g
same,"% variation vs control paw, injured paw","1 mg/kg i.p., T0 + 120 min",−39%
same,"% variation vs pre-drug threshold, injured paw","1 mg/kg i.p., T0 + 120 min",14%
same,"% variation vs vehicle-treated group, injured paw","1 mg/kg i.p., T0 + 120 min",13%
same,"Nociceptive threshold, injured paw (mean ± s.e.m.)","1 mg/kg i.p., T0 + 120 min",230 ± 9.5 g
same,Effect on nociceptive threshold vs vehicle-treated group (in words),"3 mg/kg i.p., 120 min. later",significant increase
same,"Nociceptive threshold, control paw (mean ± s.e.m.)",3 mg/kg i.p.,392 ± 18.4 g
same,"% variation vs control paw, injured paw",[2],−47%
same,"% variation vs vehicle-treated group, injured paw",[2],4%
same,"Nociceptive threshold, injured paw (mean ± s.e.m.)",[2],208 ± 7.4 g
same,"% variation vs control paw, injured paw","3 mg/kg i.p., T0 + 120 min",−23%
same,"% variation vs pre-drug threshold, injured paw","3 mg/kg i.p., T0 + 120 min",42%
same,"% variation vs vehicle-treated group, injured paw","3 mg/kg i.p., T0 + 120 min",45%
same,"Nociceptive threshold, injured paw (mean ± s.e.m.)","3 mg/kg i.p., T0 + 120 min, hydrochloride, 3 mg/kg",296 ± 20.8 g
same,Effect on nociceptive threshold vs vehicle-treated group (in words),"10 mg/kg i.p., 120 min. later",significant increase
same,"Nociceptive threshold, control paw (mean ± s.e.m.)",10 mg/kg i.p.,384 ± 10.2 g
same,"% variation vs control paw, injured paw",[3],−47%
same,"% variation vs vehicle-treated group, injured paw",[3],2%
same,"Nociceptive threshold, injured paw (mean ± s.e.m.)",[3],204 ± 6.5 g
same,"% variation vs control paw, injured paw","10 mg/kg i.p., T0 + 120 min",−27%
same,"% variation vs pre-drug threshold, injured paw","10 mg/kg i.p., T0 + 120 min",53%
same,"% variation vs vehicle-treated group, injured paw","10 mg/kg i.p., T0 + 120 min",53%
same,"Nociceptive threshold, injured paw (mean ± s.e.m.)","10 mg/kg i.p., T0 + 120 min, hydrochloride, 10 mg/kg",312 ± 22.7 g
same,"% variation vs control paw, injured paw",[4],−50%
same,"% variation vs vehicle treated group, injured paw",[4],1%
same,"paw withdrawal threshold, control paw, Mean","MIN-117 1 mg/kg i.p. group, Baseline (before dosing, 3 h after carrageenan)",402 g
same,"% activity on carrageenan-induced mechanical hyperalgesia, injured paw","MIN-117 1 mg/kg i.p., 120 min",15%
same,"% variation vs control paw, injured paw","MIN-117 1 mg/kg i.p., 120 min",−39%
same,"% variation vs pre-drug threshold, injured paw","MIN-117 1 mg/kg i.p., 120 min",14%
same,"% variation vs vehicle treated group, injured paw","MIN-117 1 mg/kg i.p., 120 min",13%
same,"paw withdrawal threshold, control paw, individual rats",[5],400 g and 440 g and 340 g and 480 g and 360 g (4×) and 380 g and 320 g
same,"paw withdrawal threshold, injured paw, individual rats",[5],260 g (4×) and 220 g (2×) and 240 g and 200 g (2×) and 180 g
same,"paw withdrawal threshold, control paw, Mean","MIN-117 1 mg/kg i.p., 120 min after treatment",380 g
same,"% variation vs control paw, injured paw",[6],−47%
same,"% variation vs vehicle treated group, injured paw",[6],4%
same,"paw withdrawal threshold, control paw, Mean","MIN-117 3 mg/kg i.p. group, Baseline (before dosing, 3 h after carrageenan)",392 g
same,"% activity on carrageenan-induced mechanical hyperalgesia, injured paw","MIN-117 3 mg/kg i.p., 120 min",55%
same,"% variation vs control paw, injured paw","MIN-117 3 mg/kg i.p., 120 min",−23%
same,"% variation vs pre-drug threshold, injured paw","MIN-117 3 mg/kg i.p., 120 min",42%
same,"% variation vs vehicle treated group, injured paw","MIN-117 3 mg/kg i.p., 120 min",45%
same,"paw withdrawal threshold, control paw, individual rats",[7],380 g and 360 g (5×) and 440 g and 500 g and 320 g and 420 g
same,"paw withdrawal threshold, injured paw, individual rats",[7],360 g and 220 g and 420 g and 280 g (3×) and 340 g and 320 g and 260 g and 200 g
same,"paw withdrawal threshold, control paw, Mean","MIN-117 3 mg/kg i.p., 120 min after treatment",368 g
same,"% variation vs control paw, injured paw",[8],−47%
same,"% variation vs vehicle treated group, injured paw",[8],2%
same,"paw withdrawal threshold, control paw, Mean","MIN-117 10 mg/kg i.p. group, Baseline (before dosing, 3 h after carrageenan)",384 g
same,"% activity on carrageenan-induced mechanical hyperalgesia, injured paw","MIN-117 10 mg/kg i.p., 120 min",64%
same,"% variation vs control paw, injured paw","MIN-117 10 mg/kg i.p., 120 min",−27%
same,"% variation vs pre-drug threshold, injured paw","MIN-117 10 mg/kg i.p., 120 min",53%
same,"% variation vs vehicle treated group, injured paw","MIN-117 10 mg/kg i.p., 120 min",53%
same,"paw withdrawal threshold, control paw, individual rats",[9],440 g (3×) and 480 g and 520 g and 400 g and 340 g and 320 g and 360 g and 540 g
same,"paw withdrawal threshold, injured paw, individual rats",[9],320 g (2×) and 280 g (2×) and 340 g and 360 g and 480 g and 260 g and 240 g (2×)
same,"paw withdrawal threshold, control paw, Mean","MIN-117 10 mg/kg i.p., 120 min after treatment",428 g
"CN1CC[C@]23c4c5ccc(O)c4O[C@H]2[C@@H](O)C=C[C@H]3[C@H]1C5 [Morphine, reference compound]",Effect on nociceptive threshold vs baseline pre-treatment (in words),"3 mg/kg s.c., 30 min. after the injection",marked and significant increase
same,"Nociceptive threshold, control paw (mean ± s.e.m.)",3 mg/kg s.c.,376 ± 14.5 g
same,"% variation vs control paw, injured paw",[10],−47%
same,"% variation vs vehicle-treated group, injured paw",[10],0%
same,"Nociceptive threshold, injured paw (mean ± s.e.m.)","3 mg/kg s.c., T0 (before dosing), 3 mg/kg",200 ± 6.7 g
same,"Nociceptive threshold, injured paw (mean ± s.e.m.)","3 mg/kg s.c., T0 (before dosing), listed as morphine, 3 mg/kg",200 ± 6.7 g
same,"% variation vs control paw, injured paw","3 mg/kg s.c., T0 + 30 min",−17%
same,"% variation vs pre-drug threshold, injured paw","3 mg/kg s.c., T0 + 30 min",162%
same,"% activity, injured paw",[11],190%
same,"Nociceptive threshold, injured paw (mean ± s.e.m.)",[11],524 ± 35.6 g
same,"% activity, injured paw",[12],+190%
same,"Nociceptive threshold, injured paw (mean ± s.e.m.)",[12],524 ± 35.6 g
same,"% variation vs control paw, injured paw",[13],−47%
same,"% variation vs vehicle treated group, injured paw",[13],0%
same,"paw withdrawal threshold, control paw, Mean","Morphine 3 mg/kg s.c. group, Baseline (before dosing, 3 h after carrageenan)",376 g
same,"% activity on carrageenan-induced mechanical hyperalgesia, injured paw","Morphine 3 mg/kg s.c., 30 min",190%
same,"% variation vs control paw, injured paw","Morphine 3 mg/kg s.c., 30 min",−17%
same,"% variation vs pre-drug threshold, injured paw","Morphine 3 mg/kg s.c., 30 min",162%
same,"paw withdrawal threshold, control paw, individual rats",[14],680 g (4×) and 640 g (2×) and 600 g and 620 g and 560 g and 520 g
same,"paw withdrawal threshold, injured paw, individual rats",[14],680 g and 600 g (2×) and 500 g and 640 g and 320 g and 400 g and 540 g and 440 g and 520 g
same,"paw withdrawal threshold, control paw, Mean",[14],630 g

# From patent US11766430B2, “Methods of using a phenoxypropylamine compound to treat pain” (Minerva Neurosciences, Inc., priority 2018, dated 2023)
